# Assays:
# HaCaT cells = experiment: Glucosamine uptake assay in HaCaT cells; type: cell-based, human; conditions: 0.1 μM; for Uptake rate (glucosamine): 48 h treatment; for Percentage (%) of control glucosamine uptake: relative to control
# Protocol: In glucosamine uptake test, HaCaT cells were seeded into 24-well plate at a density of 3×10^4 cells/well and cultured for 24 h. The cells were then treated in the absence (solvent control) or presence of various concentrations of astragalosides for another 48 h. The treated cells were then washed twice with PBS and incubated in glucose and serum free medium (GSFM). After 2 h, the cells were replaced with fresh GSFM containing 0.2 μCi of [^14C]-Glucosamine (American Radiolabelled Chemicals Inc, ARC, St. Louis, Mo., USA). At the designated time interval, the cells were washed twice with GSFM containing cold glucosamine and then lysed in 200 μL 2% SDS. Cell lysates were centrifuged at 15000 g for 15 min. Intracellular uptaken glucosamine was determined by transferring 10 μL of the cell lysate to filter-bottemed UniFilter plates (Perkim-Elmer) and counted. Protein concentration of the samples was measured using the BCA protein assay kit as described above. Glucosamine accumulated in the cells was calculated and normalized to protein concentration and uptake rate was expressed as counts per minute per microgram of cell protein (cpm/min/μg).
# MMP-1 = experiment: Quantitative analysis of MMP-1 transcripts in HDF cells (qRT-PCR); type: cell-based, human; conditions: 0.1 μM, MMP-1 mRNA relative to 0 = 1.00
# Protocol: Relative levels of MMP-1 expression in HDF cells were determined by qRT-PCR. Preparation of total RNA and cDNA were carried out as described in previous sections. qRT-PCR was performed using the Applied Biosystem 7300 system and pre-developed Taqman Gene Expression Assays (Applied Biosystems, Foster City, Calif., USA). The reaction was performed as described in previous sections except that primer mix for human MMP-1 (assay ID HS00233958_m1, Applied Biosystems) and GAPDH (assay ID Hs99999905_m1, Applied Biosystems) were used.
# Results shown in Tables 6A and 6B represent the quantitated data from zymography analysis of MMP-2 protein in HaCaT cells and qRT-PCR for MMP-1 in HDF cells. The concentrations used were 0, 0.01. 0.1, 1 μM (if not indicated otherwise) for pure compounds; and were 0, 1, 10, 40 μg/mL for crude extract (if not indicated otherwise). The cells were treated with the indicated compounds for 24 h before harvested for analysis of Pro-MMP-2 or activated MMP-2 in whole cell extract. Fifty micrograms of the cell extract samples were used for electrophoresis.
# collagen III = experiment: Collagen III expression and secretion in human HaCaT cells (western blot); type: cell-based; conditions: relative to 0 = 1.00
# Protocol: The Spontaneously transformed human keratinocyte cell lines HaCaT cells were grown at 37° C. in a humidified incubator under 5% CO2 and 95% air in culture medium such as Dulbecco Modified Eagle Medium (DMEM) supplemented with 10% Fetal Bovine Serum (FBS), 100 IU/mL penicillin, 100 μg/mL of streptomycin, 2 mM sodium pyruvate and 1% Non-Essential Amino Acids (NEAA). The culture medium was replaced every other day. After confluence, the cells were subcultured following trypsinization. For subcultures cells were harvested after brief treatment with 0.1% trypsin/ethylenediaminetetraacetic acid (EDTA) solution and seeded at a dilution of 1:10. Cells between passages 12 and 45 were used for studies. The cells were seeded and incubated for 24 h before treated with the astragalosides for 24 h. Control cultures were maintained in medium supplemented with vehicle (dimethyl sulfoxide (DMSO) 0.1%). No growth and differentiation effects of DMSO were observed under these culture conditions.
# The cells were treated with pure compounds such as astragaloside I (AS 1), astragaloside II (AS2), astragaloside III (AS3), astragaloside IV (AS4), astragaloside VI (AS6), isoastragaloside I (isoAS1), isoastragaloside II (isoAS2), and cycloastragenol 6-O-β-D-glucopyranose (AA) at concentrations of 0-10 μM. Alternatively, the cells were also treated with the crude extracts, such as butanol fraction and water insoluble fraction of Astragalus membranaceus at concentrations of 0, 1, 10, and 40 μg/mL. The cells were treated with the indicated compounds or the extracts for 24 h before harvested for analysis of collagen I and III expressed in the whole cell extract or secreted into the culture medium.
# Western blot analysis was carried out on both of cultured medium and cell lysates. The cells were plated on 6-cm dishes at a density of 1×10^6 cells/dish for 24 h prior to treatment with indicated concentrations of astragalus triterpenoids as indicated for another 48 h. The conditioned culture mediums were then centrifuged, 2-fold concentrated and collected for assay of collagens and MMPs secreted into the culture medium. The cells were washed and lysed in 0.2 mL of lysis buffer (1% NP-40, 50 mM Tris-HCl, pH 7.4, 180 mM NaCl, 1 mM EDTA, 1 mM PMSF, 1 mM NaF, 10 mM Na3VO4) for 30 min at 4° C. After centrifuging at 17500 g for 15 min, the supernatants of cell lysate were also collected. Protein concentration of the samples were measured using the bicinchoninic acid (BCA) protein assay kit according to the manufacturer's protocol (Pierce, Rockford, Ill., USA). Equal amount of protein samples of concentrated conditioned medium (100 μg) or cell lysate supernatants (50 μg) were mixed with an appropriate volume of 4×SDS sampling buffer and separated by 8% SDS-PAGE gel. The protein bands separated in the SDS-PAGE gel were blotted onto a polyvinylidene fluoride (PVDF) membrane. The blotted PVDF membrane was washed twice and blocked in freshly prepared Tris-buffered saline (TBS) containing 0.1% Tween-20 and 7% skim milk (TBST) for 2 h at room temperature. The PVDF membrane was then incubated with either antibodies against collagen I and III or the housekeeping protein α-tubulin (Santa Cruz Biotechnology, Santa Cruz, Calif.) for 18 h at 4° C. Horseradish peroxidase-conjugated anti-goat antibody was used as secondary antibody. Signals were visualized by an enhanced chemiluminescence kit (Clonetech, Palo Alto, Calif., USA) followed by exposure to X-ray films.
# The collagen III was also over-expressed in the human HaCaT cells treated with different doses (0.01, 0.1 and 1 μM) of the astragalosides, such as AS1, AS2 and AS3. Similarly, the collagen III was over-expressed in the human HaCaT cells treated with various dosages (1, 10 and 40 μg/mL) of the crude extract as shown in Table 1B. On the other hand, the amount of collagen III secreted into the medium was measured to determine the effect on cellular release of collagen III. […]
Molecule,Uptake rate (glucosamine) (HaCaT cells),Percentage (%) of control glucosamine uptake (HaCaT cells),MMP-1 Q-PCR (MMP-1),Collagen III in cell (collagen III; 0.01 μM),Collagen III in cell (collagen III; 0.1 μM),Collagen III in cell (collagen III; 1 μM),Collagen III in medium (collagen III; 0.01 μM),Collagen III in medium (collagen III; 0.1 μM),Collagen III in medium (collagen III; 1 μM)
"CC(=O)O[C@H]1[C@H](O[C@H]2CC[C@]34C[C@]35CC[C@]3(C)[C@@H]([C@@]6(C)CC[C@@H](C(C)(C)O)O6)[C@@H](O)C[C@@]3(C)[C@@H]5C[C@H](O[C@@H]3O[C@H](CO)[C@@H](O)[C@H](O)[C@H]3O)[C@H]4C2(C)C)OC[C@@H](O)[C@@H]1O [AS2, astragaloside II]",0.9561 ± 0.0918 CPM/μg protein,116.00%,0.25,1.36,1.44,1.49,–,–,–
"CC(C)(O)[C@@H]1CC[C@](C)([C@H]2[C@@H](O)C[C@@]3(C)[C@@H]4C[C@H](O)[C@H]5C(C)(C)[C@@H](O[C@@H]6OC[C@@H](O)[C@H](O)[C@H]6O[C@@H]6O[C@H](CO)[C@@H](O)[C@H](O)[C@H]6O)CC[C@@]56C[C@@]46CC[C@]23C)O1 [AS3, astragaloside III]",1.0129 ± 0.0371 CPM/μg protein,122.90%,–,0.86,1.22,2.12,–,–,–
"CC(C)(O)[C@@H]1CC[C@](C)([C@H]2[C@@H](O)C[C@@]3(C)[C@@H]4C[C@H](O[C@@H]5O[C@H](CO)[C@@H](O)[C@H](O)[C@H]5O)[C@H]5C(C)(C)[C@@H](O[C@@H]6OC[C@@H](O)[C@H](O)[C@H]6O)CC[C@@]56C[C@@]46CC[C@]23C)O1 [AS4, astragaloside IV]",0.8931 ± 0.0918 CPM/μg protein,108.36%,–,–,–,–,0.79,1.13,1.16
"CC(C)(O)[C@@H]1CC[C@](C)([C@H]2[C@@H](O)C[C@@]3(C)[C@@H]4C[C@H](O[C@@H]5O[C@H](CO)[C@@H](O)[C@H](O)[C@H]5O)[C@H]5C(C)(C)[C@@H](O[C@@H]6OC[C@@H](O)[C@H](O)[C@H]6O[C@@H]6O[C@H](CO)[C@@H](O)[C@H](O)[C@H]6O)CC[C@@]56C[C@@]46CC[C@]23C)O1 [AS6, astragaloside VI]",0.8471 ± 0.0278 CPM/μg protein,102.78%,–,–,–,–,4.55,4.27,3.86
"CC(=O)O[C@H]1[C@H](O[C@H]2CC[C@]34C[C@]35CC[C@]3(C)[C@@H]([C@@]6(C)CC[C@@H](C(C)(C)O)O6)[C@@H](O)C[C@@]3(C)[C@@H]5C[C@H](O[C@@H]3O[C@H](CO)[C@@H](O)[C@H](O)[C@H]3O)[C@H]4C2(C)C)OC[C@@H](OC(C)=O)[C@@H]1O [isoAS1, isoastragaloside I]",0.9589 ± 0.0665 CPM/μg protein,116.34%,0.6,–,–,–,3.32,4.41,6.53
"CC(=O)O[C@@H]1[C@@H](O)[C@H](O[C@H]2CC[C@]34C[C@]35CC[C@]3(C)[C@@H]([C@@]6(C)CC[C@@H](C(C)(C)O)O6)[C@@H](O)C[C@@]3(C)[C@@H]5C[C@H](O[C@@H]3O[C@H](CO)[C@@H](O)[C@H](O)[C@H]3O)[C@H]4C2(C)C)OC[C@H]1O [isoAS2, isoastragaloside II]",0.9226 ± 0.0668 CPM/μg protein,111.94%,0.71,–,–,–,–,–,–
astragaloside I [AS1],1.0482 ± 0.0560 CPM/μg protein,127.18%,0.75,1.29,1.59,2.63,–,–,–
